The results in this text go back to publication PMC6627374, “Effects of the Pentapeptide P33 on Memory and Synaptic Plasticity in APP/PS1 Transgenic Mice: A Novel Mechanism Presenting the Protein Fe65 as a Target” (International Journal of Molecular Sciences, 2019).

The target of test [1] is T1, Fe65-WW domain (WW domain of Fe65) (Homo sapiens, UniProt O00213).
T1 construct: made in house; host or cells: chemical solid-phase peptide synthesis (Fmoc, Rink Amide AM resin); no expression host
T1 sequence (O00213 253-285 limits assumed): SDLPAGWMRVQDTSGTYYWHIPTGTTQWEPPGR
Kind of test: ITC binding to Fe65-WW. Set-up: species or system human and mouse (WW domain identical). As to conditions: 310 K. As to the method: Synthesis of acetyl-Fe65-WW, acetyl-Pin1-WW, and the control PPPPP (structures involved in Figure 2) was carried out on a Rink Amide AM (0.3 mmol∙g^−1) resin using Fmoc chemistry and activation with HATU in the presence of DIPEA. Cleavage was achieved by a treatment with TFA/H2O/triisopropylsilane/1,4-dithio-DL-threitol/phenol (90:5:3:1:1) at room temperature (RT). TFA was removed in vacuo, the peptides were then precipitated using cold, dry diethyl-ether, dissolved in ACN/H2O and lyophilized.
Isothermal titrations were performed using a Microcal VP-ITC (Malvern Instruments, Malvern, UK) microcalorimeter. Binding experiments were carried out in degassed phosphate-buffered saline (PBS) at pH 7.4. The concentrations of Fe65-WW and Pin1-WW were normalized for the peptide contents. In one titration experiment, 10-μL portions of the ligand-containing solution (P33 or PPPPP) were injected from a computer-controlled 300-μL microsyringe at intervals of 300 s into the solution of the WW domain (Fe65-WW or Pin1-WW), dissolved in the same buffer as for the ligand. The rev of the microsyringe was set to 307 rpm. Measurements were repeated twice at 310 K. The starting concentrations of Fe65-WW and Pin1-WW in the cell were 83.5 and 81.4 μM, respectively, and the concentrations of the stock solutions containing P33 or PPPPP in the syringe were 1.006 and 1.056 mM, respectively. Control experiments were performed by injecting P33 or PPPPP into the cell containing plain buffer without the WW domain, with results achieved via subtracting the dilution heats from those measured in the presence of the WW domain.

A further test relates to human APP. In words: Western blot, APP level in brain (6E10). The class given is in vivo, human APP in APP/PS1 transgenic mice. As to conditions: APP/PS1 mice; 5 mg∙kg^−1 i.p., five days per week, six months; HC and CTX. As for the experimental part: (§1) For this study, three-month-old male and female WT and APP/PS1 mice (n = 37) were used. Four groups were defined: WT-vehicle (physiological saline) (male n = 4; female n = 6), WT-P33 (male n = 6; female n = 5), APP/PS1-vehicle (male n = 3; female n = 5), and APP/PS1-P33 (male n = 6; female n = 2). Animals were subjected to intraperitoneal (i.p.) injections of P33 (5 mg∙kg^−1) for five days per week, over a course of six months. The mice were kept in groups under constant temperature (23 ± 0.5 °C), lighting (12-h/12-h light/dark cycle, lights on at 7:00 a.m.), and humidity (~50%). Standard mouse chow and tap water were supplied ad libitum. All behavioral experiments were performed in the light period. Handling was done daily at the same time.
Nine-month-old mice (three animals per group) were euthanized via cervical dislocation. […] To quantify the level of Aβ in the mice, we used a sandwich ELISA Kit (Innotest Amyloid-[…]) from Innogenetics (Gent, Belgium), following the instructions of the manufacturer. The absorbance values were measured at 450 nm on a 96-well plate reader (NOVOstar OPTIMA, BMG Labtech, Offenburg, Germany). […]
The results of spine density and immunohistochemistry experiments were calculated with one-way ANOVA followed by Fisher’s LSD post hoc tests. […] Data were analyzed with SPSS (IBM SPSS Statistics 24), and were expressed as the mean ± standard error of the mean (SEM). […]

The test system of a further test is PSD95. In words: Western blot, PSD95 level. The format is in vivo, mouse. As to conditions: APP/PS1 mice; 5 mg∙kg^−1 i.p., five days per week, six months. As to the method:
as §1, with “Handling was done daily at the same time.” left out
Protein samples, identically prepared as for ELISA, (20 μg/lane) were separated on a 15% SDS-polyacrylamide gel (80 V, 20 min at RT; than 130 V, 60 min at RT) or on a 4–12% NuPAGE® Bis-Tris Gel (Thermo Fischer Scientific, Waltham, MA, USA, 200V, 30 min at RT) and transferred to a nitrocellulose membrane (Whatman, Maidstone, UK, 450 mA, 90 min at 4 °C). […] Membranes were scanned with a Bio-Rad Molecular Imager® ChemiDoc™ XRS+Imaging System (Bio-Rad Laboratories, Hercules, CA, USA) and evaluated with the Image Lab 4.0 software.
The results of spine density and immunohistochemistry experiments were calculated with one-way ANOVA followed by Fisher’s LSD post hoc tests. […]
In general terms: Immunoblotting shows a protein as a band on a membrane.

“And” between values parts separate entries of the source, which are not always exact repeats. Equal entries are not always repeated. Where a SMILES comes first, the peptide text is derived from it.

What is called Kd is the free concentration of one partner at which half of the binding sites on the other are occupied at equilibrium, for simple one-to-one binding. Consider `C[C@@H](N)C(=O)N1CCC[C@@H]1C(=O)N[C@H](C)C(=O)N1CCC[C@@H]1C(=O)N[C@H](CCC(=O)O)C(N)=O` [P33] (HELM PEPTIDE1{[dA].[dP].[dA].[dP].[dE].[am]}$$$$V2.0), for which, in test [1] (PBS pH 7.4), the “selectivity of binding, Fe65-WW over Pin1-WW (in words)” value was “can bind selectively to the Fe65-WW domain” and the ΔH worked out at 0.343 ± 0.0042 kJ/mol. In test [1] (PBS pH 7.4, 1:1 [P33]/[Fe65-WW] complex), the “stoichiometric factor N” value is 1.14 and 1.14 ± 0.01. The dissociation constant Kd in test [1] (PBS pH 7.4, Fe65-WW 83.5 μM in cell, P33 1.006 mM in syringe, measurements repeated twice, read-out: dissociation constant Kd) was found to be 4.68 ± 0.04 µM. For the same molecule, the “APP level, effect of P33 (in words)” value in the test with human APP was “did not change with the P33-treatment”. Besides, in the test on PSD95, the “PSD95 level, effect of P33 (in words)” value is “could be restored by applying P33 on APP/PS1 mice”.
